Source: ChEMBL document CHEMBL4177602, “Zaluzanin C (ZC) induces osteoblast differentiation through regulating of osteogenic genes expressions in early stage of differentiation” (Bioorg Med Chem Lett, 2017)
Calls of active or inactive are those of the source. No cut-off for these calls is given here.

Key:
C3H 10T1/2 [1] = assay: Cytotoxicity against mouse C3H10T1/2 cells assessed as reduction in cell viability at >10 uM after 24 hrs by MTT assay; type: cell-based; details: c3h 10t1/2, 24 h
C3H 10T1/2 [2] = assay: Induction of osteoblast differentiation in mouse C3H10T1/2 cells assessed as increase in Id1 mRNA expression at 5 uM after 2 days by RT-PCR analysis; type: functional, cell-based
MC3T3-E1 [3] = assay: Induction of osteoblast differentiation in mouse MC3T3-E1 cells assessed as increase in Runx2 protein level at 5 uM after 2 days by Western blot analysis; type: functional, cell-based
MC3T3-E1 [4] = assay: Induction of osteoblast differentiation in mouse MC3T3-E1 cells assessed as increase in Dlx5 mRNA expression at 5 uM after 2 days by qPCR analysis; type: functional, cell-based
C3H 10T1/2 [5] = assay: Induction of osteoblast differentiation in mouse C3H10T1/2 cells assessed as increase in Id1 mRNA expression at 5 uM after 2 days by qPCR analysis; type: functional, cell-based
MC3T3-E1 [6] = assay: Induction of osteoblast differentiation in mouse MC3T3-E1 cells assessed as increase in Id1 mRNA expression at 5 uM after 2 days by RT-PCR analysis; type: functional, cell-based
C3H 10T1/2 [7] = assay: Induction of osteoblast differentiation in mouse C3H10T1/2 cells assessed as increase in Dlx5 mRNA expression at 5 uM after 2 days by RT-PCR analysis; type: functional, cell-based
[8] = Increase in Runx2 (unknown origin) promoter activity expressed in mouse C3H10T1/2 cells at 5 uM after 48 hrs by luciferase reporter gene assay; type: cell-based
C3H 10T1/2 [9] = assay: Induction of osteoblast differentiation in mouse C3H10T1/2 cells assessed as increase in Runx2 mRNA expression at 5 uM after 2 days by qPCR analysis; type: functional, cell-based
MC3T3-E1 [10] = assay: Induction of osteoblast differentiation in mouse MC3T3-E1 cells assessed as increase in Runx2 mRNA expression at 5 uM after 2 days by qPCR analysis; type: functional, cell-based
C3H 10T1/2 [11] = assay: Induction of osteoblast differentiation in mouse C3H10T1/2 cells assessed as increase in Runx2 protein level at 5 uM after 2 days by Western blot analysis; type: functional, cell-based
MC3T3-E1 [12] = assay: Cytotoxicity against mouse MC3T3-E1 cells assessed as reduction in cell viability at >10 uM after 24 hrs by MTT assay; type: cell-based; details: mc3t3-e1, 24 h
MC3T3-E1 [13] = assay: Induction of osteoblast differentiation in mouse MC3T3-E1 cells assessed as increase in Runx2 mRNA expression at 5 uM after 2 days by RT-PCR analysis; type: functional, cell-based
MC3T3-E1 [14] = assay: Induction of mineralization in mouse MC3T3-E1 cells at 5 uM after 14 days in presence of ascorbic acid/beta-GP by alizarin red S staining based assay; type: functional, cell-based
MC3T3-E1 [15] = assay: Increase in Runx2 (unknown origin) promoter activity expressed in mouse MC3T3-E1 cells at 5 uM after 48 hrs by luciferase reporter gene assay; type: cell-based
C3H 10T1/2 [16] = assay: Induction of osteoblast differentiation in mouse C3H10T1/2 cells assessed as increase in Runx2 mRNA expression at 5 uM after 2 days by RT-PCR analysis; type: functional, cell-based
MC3T3-E1 [17] = assay: Induction of osteoblast differentiation in mouse MC3T3-E1 cells assessed as increase in ALP activity at 5 uM after 4 days BCIP/NBT liquid substrate based assay; type: functional, cell-based
MC3T3-E1 [18] = assay: Induction of mineralization in mouse MC3T3-E1 cells at 5 uM after 14 days by alizarin red S staining based assay; type: functional, cell-based
C3H 10T1/2 [19] = assay: Induction of osteoblast differentiation in mouse C3H10T1/2 cells assessed as increase in Dlx5 mRNA expression at 5 uM after 2 days by qPCR analysis; type: functional, cell-based
MC3T3-E1 [20] = assay: Induction of osteoblast differentiation in mouse MC3T3-E1 cells assessed as increase in ALP activity at 5 uM after 4 days in presence of ascorbic acid/beta-GP BCIP/NBT liquid substrate based assay; type: functional, cell-based
MC3T3-E1 [21] = assay: Induction of osteoblast differentiation in mouse MC3T3-E1 cells assessed as increase in Dlx5 mRNA expression at 5 uM after 2 days by RT-PCR analysis; type: functional, cell-based
C3H 10T1/2 [22] = assay: Cytotoxicity against mouse C3H10T1/2 cells assessed as reduction in cell viability at 1 to 5 uM after 24 hrs by MTT assay; type: cell-based; details: c3h 10t1/2, 24 h
MC3T3-E1 [23] = assay: Induction of osteoblast differentiation in mouse MC3T3-E1 cells assessed as increase in Id1 mRNA expression at 5 uM after 2 days by qPCR analysis; type: functional, cell-based
MC3T3-E1 [24] = assay: Induction of osteoblast differentiation in Runx2 knockdown mouse MC3T3-E1 cells assessed as increase in ALP activity at 5 uM after 4 days BCIP/NBT liquid substrate based assay; type: functional, cell-based
MC3T3-E1 [25] = assay: Cytotoxicity against mouse MC3T3-E1 cells assessed as reduction in cell viability at 1 to 5 uM after 24 hrs by MTT assay; type: cell-based; details: mc3t3-e1, 24 h

SMILES: C=C1[C@@H]2[C@H]3OC(=O)C(=C)[C@@H]3CCC(=C)[C@@H]2C[C@@H]1O [ZALUZANIN C]
- Activity (C3H 10T1/2 [1]): Toxic
- Activity (C3H 10T1/2 [2]): Active
- Activity (MC3T3-E1 [3]): Active
- Activity (MC3T3-E1 [4]): Active
- Activity (C3H 10T1/2 [5]): Active
- Activity (MC3T3-E1 [6]): Active
- Activity (C3H 10T1/2 [7]): Active
- Activity [8]: Active
- Activity (C3H 10T1/2 [9]): Active
- Activity (MC3T3-E1 [10]): Active
- Activity (C3H 10T1/2 [11]): Active
- Activity (MC3T3-E1 [12]): Toxic
- Activity (MC3T3-E1 [13]): Active
- Activity (MC3T3-E1 [14]): Active
- Activity (MC3T3-E1 [15]): Active
- Activity (C3H 10T1/2 [16]): Active
- Activity (MC3T3-E1 [17]): Active
- Activity (MC3T3-E1 [18]): Active
- Activity (C3H 10T1/2 [19]): Active
- Activity (MC3T3-E1 [20]): Active
- Activity (MC3T3-E1 [21]): Active
- Activity (C3H 10T1/2 [22]): Non-Toxic
- Activity (MC3T3-E1 [23]): Active
- Activity (MC3T3-E1 [24]): inactive
- Activity (MC3T3-E1 [25]): Non-Toxic
